Results from US8710098B2, “Group of amino substituted benzoyl derivatives and their preparation and their use” (priority 2008, dated 2014).
≈ marks a conversion by molar mass, not a printed value.

Experiments:
[1] = molecular target: T1, hA3G degradation mediated by HIV-1 Vif (UniProt P69723+Q9HC16); assay: Screening experiment for up-regulation activity to hA3G (YFP-fused hA3G co-expressed with HIV-1 Vif, fluorescence); assay type: cell-based, human; details: YFP fluorescence of cells co-expressing Vif and hA3G-YFP; excitation 485 nm, detection 520 nm; averages of duplicates
T1 construct: expressed in transfected cells
T1 sequence (P69723 whole entry, the tested form may be a part): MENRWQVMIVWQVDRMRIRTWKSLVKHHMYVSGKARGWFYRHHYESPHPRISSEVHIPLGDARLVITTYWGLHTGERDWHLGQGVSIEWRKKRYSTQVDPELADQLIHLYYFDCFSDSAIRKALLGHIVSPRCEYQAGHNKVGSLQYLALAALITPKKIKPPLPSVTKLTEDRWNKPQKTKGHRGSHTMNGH
T1 sequence (Q9HC16 whole entry, the tested form may be a part): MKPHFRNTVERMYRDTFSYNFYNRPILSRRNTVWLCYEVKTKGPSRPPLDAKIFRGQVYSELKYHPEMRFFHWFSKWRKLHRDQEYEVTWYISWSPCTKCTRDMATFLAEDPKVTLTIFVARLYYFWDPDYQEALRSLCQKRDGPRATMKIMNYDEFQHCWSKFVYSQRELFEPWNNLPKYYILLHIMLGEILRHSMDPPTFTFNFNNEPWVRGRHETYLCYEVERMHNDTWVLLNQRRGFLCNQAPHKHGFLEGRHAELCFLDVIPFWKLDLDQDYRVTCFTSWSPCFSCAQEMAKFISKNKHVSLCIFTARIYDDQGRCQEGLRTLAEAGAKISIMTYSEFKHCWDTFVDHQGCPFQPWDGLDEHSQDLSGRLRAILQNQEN
Source text: Based on the advances making research on the hA3G degradation mediated by HIV-1 Vif, this invention establishes a high throughput anti-HIV-1 drug screening model using hA3G degradation mediated by HIV-1 Vif as target, to screen small molecule active compounds capable of inhibiting this degradation process. The function principle of this model is that HIV-1 Vif protein and hA3G fused yellow fluorescent protein (YFP) co-expressed in the cells, then the intracellular fluorescence intensity (at […]) decreases owing to the degradation of hA3G caused by Vif and subsequent degradation of YEP fused on hA3G. By means of measuring the change of fluorescent intensity, the influence of the screened compounds on the degradation of hA3G caused by Vif can quantitatively be analyzed. Simultaneously, to differentiate the non-specific inhibitory effect of diverse ubiquitin degradation route in the samples, this invention establishes a recheck model based on the detection of P53 degradation caused by the product of adenovirus early gene, to assure that the positive samples screened out by the proposed model can specifically block the degradation of hA3G caused by Vif.
Screening Experiment for Up-Regulation Activity to hA3G
The cells are picked up and cultured a culture bottle. When the cells grow full of the culture bottle, old culture medium is discarded and the cells are digested with digestion medium. When the cells turn round, the digestion medium is discarded and the culture medium is added in at once, the bottom of the bottle is gently blown with a pipette to make the cells disengage the bottle bottom and disperse into single cell suspension. After counting the cells using blood cell counting chamber, the cell suspension is inoculated into a culture dish for transfection. The medium containing the plasmid to be transfected and the transfection reagents is gently mixed up and incubated at room temperature. The medium is then added into the supernatant of the cell culture and cultured for a certain period of time. The old culture medium is then sucked out, the cells are digested with digestive medium, the digestive medium is subsequently discarded and culture medium is immediately added. The medium is gently blown to disperse the cells into single cell suspension. After counting the cells using blood cell counting chamber, the cells are ready for inoculation.
Samples of compounds[…]Pure tested compounds are dissolved in DMSO, the solution is diluted with equal proportional distilled water. The diluent is used to test the cell systems.
Sample solution of different concentration is added into the supernatant of a cell culture. After the cells are continuously cultured, old culture medium is sucked out and the cells are blown with PBS buffer until the cells completely disengage from the culture bottle.
The fluorescence intensity values of the cell suspension with test compound samples, positive control samples and negative control samples are respectively measured with fluorometer, the excitation wavelength is 485 nm and the detection wavelength 520 nm. Averages of duplicated measurements are taken as the results.
The measured fluorescence intensity values of the negative control samples (blink sample) subtracted from those of test compound samples, the results are taken as YFP fluorescence of different groups. Relative fluorescence intensity=fluorescence intensity of a test sample group/fluorescence intensity of the positive control group×100% Inhibition rate of degradation=(test sample group−negative control group)/(positive control group−negative control group)×100%

HIV-1 [2] = details: HIV-1 P24 antigen in supernatant 4 days (96 h) after addition of compounds
Method: (§1) The inhibitory activities of the compounds proposed in this invention to HIV-1 were measured using HIV-1 P24 antigen kit.
(§2) DMSO solutions of samples of test compounds listed in Table 2 diluted to 8 different concentrations and the solution of the positive control AZT (azidothymidine, 0.15 ng/ml) are respectively added into 96 well plates, duplications are set for each of the dilutions, and negative control samples are also made. Aliquots of 100 μl 2×10^5 cell/ml suspension are inoculated onto the 96 well cell culture plates and cultured in an incubator under a condition of 37° C., 5% CO2 and saturated humidity. The pathologic changes of the cells are observed every day. The HIV-1 P24 antigen contents in supernatant cells are measured in 4 days (96 h) after addition of the test compounds according to the operation procedure provided by the HIV-1 P24 antigen kit.

HIV-1 [3] = assay: microbe, parasite or virus in culture; details: Human immunodeficiency virus 1, 96 h, read-out: inhibitory activity to HIV-1, IC50
Method: as §1, §2

Row | Compound | hA3G up-regulation activity (%) [1] | inhibitory activity to HIV-1, IC50 (HIV-1 [2]) | IC50 (HIV-1 [3])
1 | 3-amino-4-methoxybenzanilide [Compound 2621] | 36.2% | <0.0137 µg/mL | –
2 | COc1ccc(C(=O)Nc2cc(OC)c(OC)c(OC)c2)cc1NC(=O)C(C)Br (stereo not shown) [Compound 26] | 42.7% | – | 0.0203 µg/mL (≈ 0.0434 µM)
3 | COc1ccc(C(=O)Oc2cc(OC)c(OC)c(OC)c2)cc1NC(=O)C(C)Br (stereo not shown) [Compound 35] | 44.9% | – | 0.0223 µg/mL (≈ 0.0476 µM)
4 | CCC(=O)Nc1cc(C(=O)Nc2ccc(OC(F)(F)F)cc2)ccc1C [Compound 69, N-(4′-trifluoromethoxyphenyl)-3-propionamido-4-methylbenzamide] | 31.2% | – | –
5 | CCC(=O)Nc1cc(C(=O)Nc2ccc(OC(F)(F)F)cc2)ccc1F [Compound 70] | 24.7% | – | –
6 | COc1cc(OC(=O)c2cc(Cl)cc(NC(C)=O)c2)cc(OC)c1OC [Compound 72] | 24.3% | – | –
7 | COc1cc(OC(=O)c2cc(NC(C)=O)cc(C(F)(F)F)c2)cc(OC)c1OC [Compound 73, 3′,4′,5′-trimethoxyphenyl 3-acetamido-5-trifluoromethylbenzoate] | 29.0% | – | –
8 | COc1cc(NC(=O)c2cc(NC(C)=O)cc(C(F)(F)F)c2)cc(OC)c1OC [Compound 74] | 8.5% | – | –
9 | CCC(=O)Nc1cc(C(=O)Nc2cc(OC)c(OC)c(OC)c2)cc(OC)c1F [Compound 75, N-(3′,4′,5′-trimethoxyphenyl)-3-propionamido-4-fluoro-5-methoxybenzamide] | −1.1% | – | –
10 | CCC(=O)Nc1cc(C(=O)Nc2cc(OC)c(OC)c(OC)c2)cc(F)c1OC [Compound 77] | 14.9% | – | –
11 | CCC(=O)Nc1cc(C(=O)Nc2ccc(OC)c(F)c2)ccc1OC [Compound 78] | 8.8% | – | –
12 | CCC(=O)Nc1cc(C(=O)Nc2cc(OC)c(OC)c(OC)c2)c(F)cc1OC [Compound 79, N-(3′,4′,5′-trimethoxyphenyl)-3-propionamido-4-methoxy-6-fluorobenzamide] | 21.6% | – | –
13 | CCC(=O)Nc1cc(C(=O)Nc2ccc(N)c(F)c2)ccc1OC [Compound 80, N-(3′-fluoro-4′-aminophenyl)-3-propionamido-4-methoxybenzamide] | 37.1% | – | –
14 | CCC(=O)Nc1cc(C(=O)Nc2cc(OC)c(NC)c(OC)c2)ccc1OC [Compound 81] | 14.4% | – | –
15 | CCC(=O)Nc1cc([S+]([O-])Nc2cc(OC)c(OC)c(OC)c2)ccc1OC (stereo not shown) [Compound 82] | 28.5% | – | –
16 | CCC(=O)Nc1cc(S(=O)(=O)Nc2cc(OC)c(OC)c(OC)c2)ccc1OC [Compound 83, N-(3′,4′,5′-trimethoxyphenyl) 3-propionamido-4-methoxybenzenesulfamide] | 31.0% | – | –
17 | CCC(=O)Nc1cc(S(=O)(=O)Oc2cc(OC)c(OC)c(OC)c2)ccc1OC [Compound 84, 3′,4′,5′-trimethoxyphenyl 3-propionamido-4-methoxybenzenesulfonate] | 9.0% | – | –
18 | COc1ccc(S(=O)(=O)Nc2cc(OC)c(OC)c(OC)c2)cc1N [Compound 85, N-(3′,4′,5′-trimethoxyphenyl)-3-amino-4-methoxybenzenesulfonamide] | 6.8% | – | –
19 | CCC(=O)Oc1cc(C(=O)Nc2cc(OC)c(OC)c(OC)c2)ccc1OC [Compound 86] | 20.3% | – | –
20 | COc1ccc(C(=O)Nc2cc(OC)c(OC)c(OC)c2)cc1O [Compound 87, N-(3′,4′,5′-trimethoxyphenyl)-3-hydroxyl-4-methoxybenzamide] | 19.7% | – | –
21 | CCC(=O)Nc1cc(NNc2cc(OC)c(OC)c(OC)c2)ccc1OC [Compound 89] | 31.3% | – | –
22 | COc1ccc(S(=O)(=O)Nc2cc(OC)c(OC)c(OC)c2)cc1O [Compound 90] | 28.2% | – | –

Row | Compound | hA3G up-regulation activity (%) [1] | inhibitory activity to HIV-1, IC50 (HIV-1 [2]) | IC50 (HIV-1 [3])
23 | CCC(=O)Nc1cc(NS(=O)(=O)c2cc(OC)c(OC)c(OC)c2)ccc1OC [Compound 91, N-(3′-propionamido-4′-methoxyphenyl)-(3,4,5-trimethoxy)benzenesulfonamide] | 16.6% | – | –
24 | CCC(=O)Nc1cc(NS(=O)(=O)c2cc(OC)nc(OC)n2)ccc1OC [Compound 92] | 23.7% | – | –
25 | CCC(=O)Nc1cc(S(=O)(=O)Nc2cc(OC)nc(OC)n2)ccc1OC [Compound 93] | 34.2% | – | –
26 | CCC(=O)Nc1cc(S(=O)(=O)Nc2ccc(OC)c(OC)c2)ccc1OC [Compound 94] | 16.1% | – | –
27 | CCC(=O)Nc1cc(S(=O)(=O)Nc2ccc(OC)c(OC)c2)cc(F)c1OC [Compound 95] | 8.7% | – | –
28 | CCC(=O)Nc1cc(S(=O)(=O)Nc2ccc(NC)c(OC)c2)ccc1OC [Compound 96] | 6.9% | – | –
29 | CCC(=O)Nc1cc(C(=O)Nc2ccc(OC)c(S(N)(=O)=O)c2)ccc1OC [Compound 97] | 6.4% | – | –
30 | CNc1cc(C(=O)Nc2ccc(S(N)(=O)=O)c(F)c2)ccc1OC [Compound 98, N-(3′-fluoro-4′-aminosulfonylphenyl)-3-methylamino-4-methoxybenzamide] | 5.8% | – | –
31 | CCC(=O)Nc1cc(C(=O)Nc2ccc(S(N)(=O)=O)c(OC)c2)ccc1OC [Compound 99] | 23.6% | – | –
32 | CCC(=O)Nc1cc(C(=O)Nc2ccc(S(N)(=O)=O)c(F)c2)ccc1OC [Compound 100] | 13.6% | – | –
33 | COc1ccc(C(=O)Nc2cc(OC)c(OC)c(OC)c2)cc1NS(C)(=O)=O [Compound 101] | 22.1% | – | –
34 | COc1ccc(C(=O)Nc2ccc(OC)c(OC)c2)cc1NS(C)(=O)=O [Compound 102] | 10.3% | – | –
35 | COc1ccc(C(=O)Oc2cc(OC)c(OC)c(OC)c2)cc1NS(C)(=O)=O [Compound 103, 3′,4′,5′-trimethoxyphenyl 3-methanesulfamido-4-methoxybenzoate] | 26.1% | – | –
36 | CCC(=O)Nc1cc(C(=O)Nc2cc(OC)c(OC)c(OC)c2)ccc1OC [Compound 261, N-(3′,4′,5′-trimethoxyphenyl) 3-propionamido-4-methoxybenzamide] | 43.9% | – | 0.0227 µg/mL (≈ 0.0584 µM)
37 | COc1ccc(C(=O)Nc2cc(OC)c(OC)c(OC)c2)cc1N [Compound 262, N-(3′,4′,5′-trimethoxyphenyl) 3-amino-4-methoxybenzamide] | 36.2% | – | 0.0244 µg/mL (≈ 0.0734 µM)
38 | COc1ccc(C(=O)Nc2cc(OC)c(OC)c(OC)c2)cc1NC(=O)C(F)(F)F [Compound 263, N-(3′,4′,5′-trimethoxyphenyl)-3-trifluoroacetamido-4-methoxybenzamide] | 24.4% | – | < 0.0137 µg/mL
39 | CCC(=O)Nc1cc(C(=O)Oc2cc(OC)c(OC)c(OC)c2)ccc1OC [Compound 351, 3′,4′,5′-trimethoxyphenyl 3-propionamido-4-methoxybenzoate] | 36.7% | – | 0.0299 µg/mL (≈ 0.0768 µM)
40 | COc1ccc(C(=O)Oc2cc(OC)c(OC)c(OC)c2)cc1NC(=O)C(F)(F)F [Compound 353, 3,4,5-trimethoxyphenyl 3-trifluoroacetamido-4-methoxybenzoate] | 39.0% | – | –
41 | CCC(=O)Nc1cc(C(=O)Nc2ccc(OC)cc2)ccc1OC [Compound 2611, N-(4′-methoxyphenyl)-3-propionamido-4-methoxybenzamide] | 28.9% | – | 0.017 µg/mL (≈ 0.0518 µM)
42 | CCC(=O)Nc1cc(C(=O)Nc2ccc([N+](=O)[O-])cc2)ccc1OC [Compound 2612, N-(4′-nitrophenyl)-3-propionamido-4-methoxybenzamide] | 22.3% | – | –
43 | CCC(=O)Nc1cc(C(=O)Nc2ccc(Cl)cc2)ccc1OC [Compound 2613, N-(4′-chlorophenyl)-3-propionamido-4-methoxybenzamide] | 27.8% | – | 0.0138 µg/mL (≈ 0.0415 µM)
